Experimental findings from patent EP0636626A1, “Pyrazolopyrimidine Derivatives” (LABORATOIRES GLAXO SA, priority 1993, dated 1995) are described below.

For the assay, the target named is T1, cGMP specific PDE (Phosphodiesterase type V) (Bos taurus, UniProt Q28156).
T1 construct: The PDE V in enzyme is isolated from bovine aorta; from tissue; host or cells: bovine aorta
Description: cGMP specific PDE (PDE V) inhibition, "one step" assay. It is filed as biochemical. As to conditions: PDE V isolated from bovine aorta; concentration of inhibitor required for 50% inhibition of enzyme activity; read-out: IC₅₀. As to the method: The affinities of compounds of formula (I) for cGMP specific PDE (Phosphodiesterase type V) may be assessed by determination of their IC₅₀ values (the concentration of inhibitor required for 50% inhibition of enzyme activity). The PDE V in enzyme is isolated from bovine aorta, essentially by the method of Lugnier et al. in Biochem. Pharmacology 35, 1743 (1986) and assays are performed using a "one step" assay adapted from the method of Wells et al in Biochim. Biophys. Acta 384, 430 (1975).
Compounds of the invention were assayed according to the procedure described hereinabove.

On to `CCCOc1ccc(NC(=O)C(F)(F)F)cc1-c1nc2c(c(C)nn2C)c(=O)[nH]1` [Example 41, 1,3-Dimethyl-6-(2-propoxy-5-trifluoroacetamidophenyl)-1,5-dihydro-pyrazolo[3,4-d]pyrimidin-4-one], for which the IC50 was 1 to 10 nM.

As to `CCCOc1ccc(N)cc1-c1nc2c(c(C)nn2C)c(=O)[nH]1` [Example 7, 1,3-Dimethyl-6-(2-propoxy-5-aminophenyl)-1,5-dihydropyrazolo[3,4-d]pyrimidin-4-one], the IC50 lay within 1 to 10 nM.

For `CCCOc1ccc(-c2csc(C)n2)cc1-c1nc2c(c(C)nn2C)c(=O)[nH]1` [Example 51, 1,3-Dimethyl-6-[2-propoxy-5-(2-methyl-4-thiazolyl)phenyl]-1,5-dihydro-pyrazolo[3,4-d]pyrimidin-4-one], the IC50 was in the range of 1 to 10 nM.

With `CCCOc1ccc(NC(=O)c2ccc(F)cc2)cc1-c1nc2c(c(C)nn2C)c(=O)[nH]1` [Example 18, 1,3-Dimethyl-6-[2-propoxy-5-(4-fluorobenzamido)phenyl]-1,5-dihydropyrazolo[3,4-d]pyrimidin-4-one], the IC50 fell in the range of 1 to 10 nM.

As for `CCCOc1ccc(-c2n[nH]c(-c3ccccc3)n2)cc1-c1nc2c(c(C)nn2C)c(=O)[nH]1` [Example 67, 1,3-Dimethyl-6-[2-propoxy-5-(3-phenyl-1,2,4-triazol-5-yl)phenyl]-1,5-dihydropyrazolo[3,4-d] pyrimidin-4-one], the IC50 is 1 to 10 nM.

For `CCCOc1ccc(NC(=O)NCC)cc1-c1nc2c(c(C)nn2C)c(=O)[nH]1` [Example 30, 1,3-Dimethyl-6-(2-propoxy-5-ethylureidophenyl)-1,5-dihydro-pyrazolo[3,4-d]pyrimidin-4-one], the IC50 lay within 1 to 10 nM.

On to `CCCOc1ccc(NC(=S)NCC)cc1-c1nc2c(c(C)nn2C)c(=O)[nH]1` [Example 31, 1,3-Dimethyl-6-(2-propoxy-5-ethylthioureidophenyl)-1,5-dihydro-pyrazolo[3,4-d]pyrimidin-4-one], for which the IC50 is 1 to 10 nM.

Take `CCCOc1ccc(-c2ccc(C)s2)cc1-c1nc2c(c(C)nn2C)c(=O)[nH]1` [Example 69, 1,3-Dimethyl-6-[2-propoxy-5-(5-methyl-2-thienyl)phenyl]-1,5-dihydropyrazolo[3,4-d]pyrimidin-4-one]: the IC50 fell in the range of 1 to 10 nM.

For the compound `CCCOc1ccc(NC(=O)c2cccs2)cc1-c1nc2c(c(C)nn2C)c(=O)[nH]1` [Example 19, 1,3-Dimethyl-6-[2-propoxy-5-((2-thienyl)carboxamido)phenyl]-1,5-dihydropyrazolo[3,4-d]pyrimidin-4-one], the IC50 is 1 to 10 nM.

Regarding `CCCOc1ccc(NS(C)(=O)=O)cc1-c1nc2c(c(C)nn2C)c(=O)[nH]1` [Example 11, 1,3-Dimethyl-6-(2-propoxy-5-methanesulfonamidophenyl)-1,5-dihydropyrazolo[3,4-d]pyrimidin-4-one], the IC50 was 1 to 10 nM.

As for `CCCOc1ccc(NC(C)=O)cc1-c1nc2c(c(C)nn2C)c(=O)[nH]1` [Example 15, 1,3-Dimethyl-6-(2-propoxy-5-acetamidophenyl)-1,5-dihydropyrazolo[3,4-d]pyrimidin-4-one], the IC50 was 1 to 10 nM.

`CCCOc1ccc(NC(=O)OCC)cc1-c1nc2c(c(C)nn2C)c(=O)[nH]1` [Example 22, 1,3-Dimethyl-6-(2-propoxy-5-ethoxycarbonylaminophenyl)-1,5-dihydropyrazolo[3,4-d]pyrimidin-4-one]: the IC50 lay within 1 to 10 nM.

Turning to `CCCOc1ccc(-c2csc(C)n2)cc1-c1nc2c(c(C)nn2CC)c(=O)[nH]1` [Example 63, 1-Ethyl-3-methyl-6-[2-propoxy-5-(2-methyl-4-thiazolyl)phenyl]-1,5-dihydropyrazolo[3,4-d]pyrimidin-4-one], the IC50 lay within 1 to 10 nM.

For the compound `CCCOc1ccc(-c2csc(-c3cccnc3)n2)cc1-c1nc2c(c(C)nn2CC)c(=O)[nH]1` [Example 65, 1-Ethyl-3-methyl-6-[2-propoxy-5-(2-(3-pyridyl)-4-thiazolyl)phenyl]-1,5-dihydropyrazolo[3,4-d]pyrimidin-4-one], the IC50 was in the range of 1 to 10 nM.

For `CCCOc1ccc(-c2nc(C)cs2)cc1-c1nc2c(c(C)nn2CC)c(=O)[nH]1` [Example 37, 1-Ethyl-3-methyl-6-[2-propoxy-5-(4-methyl-2-thiazolyl)phenyl]-1,5-dihydro-pyrazolo[3,4-d] pyrimidin-4-one], the IC50 was in the range of 1 to 10 nM.
